From publication PMC12920295, “Novel radiohybrid PET-Tracers for SST2-targeted imaging of neuroendocrine tumors” (European Journal of Nuclear Medicine and Molecular Imaging, 2025)
Like-named read-outs stand apart in the source and are kept apart here.

Legend:
[1] = Lipophilicity LogDpH=7.4, shake flask method; assay type: physicochemical; conditions: PBS (pH = 7.4)/n-octanol
Experimental: The LogDpH=7.4 was determined using a modified shake flask method as previously described.

[2] = target: T1, human serum albumin (HSA) (Homo sapiens, UniProt P02768); assay: HSA binding by high performance affinity chromatography (HPAC); assay type: in vitro ADME; conditions: affinity to HSA by affinity chromatography (Chiralpak HSA column)
T1 construct: purchased H13H-2433
T1 sequence (P02768 25-609): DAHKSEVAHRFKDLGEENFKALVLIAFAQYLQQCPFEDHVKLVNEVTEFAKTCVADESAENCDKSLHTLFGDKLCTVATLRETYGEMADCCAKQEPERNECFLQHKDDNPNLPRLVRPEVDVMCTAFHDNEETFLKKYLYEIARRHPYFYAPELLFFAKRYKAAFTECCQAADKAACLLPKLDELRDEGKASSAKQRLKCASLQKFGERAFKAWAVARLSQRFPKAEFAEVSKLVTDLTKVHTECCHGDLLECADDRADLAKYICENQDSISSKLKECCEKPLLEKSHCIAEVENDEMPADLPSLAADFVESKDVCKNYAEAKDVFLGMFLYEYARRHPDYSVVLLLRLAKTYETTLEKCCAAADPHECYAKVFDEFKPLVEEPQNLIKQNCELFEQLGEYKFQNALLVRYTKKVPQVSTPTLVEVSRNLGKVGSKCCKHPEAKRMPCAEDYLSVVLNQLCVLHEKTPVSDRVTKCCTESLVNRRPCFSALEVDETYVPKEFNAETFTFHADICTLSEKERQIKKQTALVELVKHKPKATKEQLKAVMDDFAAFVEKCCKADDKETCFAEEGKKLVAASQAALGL
Experimental: For the determination of binding to human serum albumin (HSA) using HPLC, a Chiralpak HSA column (50 × 3 mm, 5 μm, H13H-2433) was used at a constant flow rate of 0.5 ml/min. The mobile phase (A: NH4OAc, 50 mM in H2O, pH 6.9 and B: iPrOH) was freshly prepared for each day.

AR42J cells = assay: Internalization into AR42J cells relative to [125I]TOC; assay type: cell-based; conditions: percentage compared to internal reference [125I]TOC
Experimental: AR42J cells (European Collection of Cell Cultures, Salisbury, UK) were grown in RPMI 1640 medium (with 2 mM, L-Glu, 10% FCS; v/v, 37 °C, 5% CO2), harvested 24 ± 2 h and seeded in 24-well poly-L-lysine plates (2.0 × 10^5 cells/well in 1 ml culture medium). After removal of the medium, the cells were washed with assay medium (300 µl, RPMI 1640 with 2 mM L-Glu, 5% BSA; v/v) and incubated in assay medium (200 µl, 15 min, 37 °C, 5% CO2). 25 µl of the ^18F-labeled ligand (20 nM) and [^125I]TOC (1 nM) in assay medium were added followed by either 25 µl TOC in assay medium (100 µM, competition experiment) or 25 µl of assay medium (internalization experiment). Cells were incubated at 37 °C for 15, 30, and 60 min (n = 3 per compound and time point), respectively, and chilled on ice. The supernatant was collected, the well washed with ice-cold RPMI 1640 (300 µl), and the two fractions combined (unbound ligand). The cells were incubated with acid wash solution (300 µl, 0.9% NaCl, 50 mM NaOAc/AcOH buffer, pH = 4.6, 15 min, 4 °C) to remove receptor-bound radioligand. The supernatant was collected, and the cells washed with 300 µl ice-cold acid wash solution (combined fractions: acid releasable, receptor bound ligand). The cells were lysed with NaOH solution (300 µl, 1 M, 15 min, RT), washed with 300 µl of the same solution, the two fractions combined (internalized ligand), and all activities quantified using a γ-counter.

[3] = Biodistribution 1 h p.i. in AR42J xenograft bearing CD1 nu/nu mice; assay type: in vivo; conditions: female, mouse, intravenous, total radioactivity, average ± Stdev
Experimental: The 8-week-old female CD1 nu/nu mice were purchased from Charles River (Sulzfeld, Germany). Animal experiments were conducted according to general animal welfare regulations (German animal protection act, as amended on 18.05.2018, Art. 141 G v. 29.3.2017 I 626, approval no. 55.2-1.2-54–2532-71-13 by the General Administration of the Free State of Bavaria; Swiss animal welfare regulations: Animal Welfare Act SR 455, license: Canton de Vaud, 3781 d). To establish tumor xenografts, AR42J cells (5 × 10^6 cells in 100 µl serum-free culture medium) were inoculated subcutaneously onto the shoulder. Mice were used for experiments when tumors had grown to a diameter of 5–9 mm (7–15 days after inoculation).
Approximately 0.5–2.5 MBq (0.05–0.20 nmol) of the ^18F-labeled ligands were injected into the tail vein of AR42J xenograft-bearing mice under isoflurane anesthesia (1.5% alveolar concentration). The mice were sacrificed 1 h post injection (n = 3–5). Organs were removed, weighed, and the activity quantified (γ-counter).
An unpaired Welch’s t-test was applied using the GraphPad Prism software (version 10.1.2). Standard deviations for tumor-to-organ (T/O) ratios were calculated using the rules of error propagation. Thresholds for statistical significance are defined as: p > 0.05 (ns); p ≤ 0.05 (*); p ≤ 0.01 (**); p ≤ 0.001 (***); p ≤ 0.0001 (****).

[4] = adrenal glands, AR42J tumor-bearing CD1 nu/nu mice, read-out: Biodistribution Adrenal Glands
[5] = blood, AR42J tumor-bearing CD1 nu/nu mice, read-out: Biodistribution Blood
[6] = femur, AR42J tumor-bearing CD1 nu/nu mice, read-out: Biodistribution Femur
[7] = heart, AR42J tumor-bearing CD1 nu/nu mice, read-out: Biodistribution Heart
[8] = intestine, AR42J tumor-bearing CD1 nu/nu mice, read-out: Biodistribution Intestine
[9] = kidney, AR42J tumor-bearing CD1 nu/nu mice, read-out: Biodistribution Kidney
[10] = liver, AR42J tumor-bearing CD1 nu/nu mice, read-out: Biodistribution Liver
[11] = lung, AR42J tumor-bearing CD1 nu/nu mice, read-out: Biodistribution Lung
[12] = muscle, AR42J tumor-bearing CD1 nu/nu mice, read-out: Biodistribution Muscle
[13] = pancreas, AR42J tumor-bearing CD1 nu/nu mice, read-out: Biodistribution Pancreas
[14] = spleen, AR42J tumor-bearing CD1 nu/nu mice, read-out: Biodistribution Spleen
[15] = stomach, AR42J tumor-bearing CD1 nu/nu mice, read-out: Biodistribution Stomach
[16] = tumor (AR42J xenograft), AR42J xenograft, CD1 nu/nu mice, read-out: Biodistribution Tumor

Row | SMILES | LogDpH=7.4 ([1]; mean of n = 8) | LogDpH=7.4 ([1]; mean of n = 8, listed as [^natGa]rhTATE1) | HSA HPAC [2] [%] | Internalization (AR42J cells) [%] | tissue uptake at 1 h [3, 4] [%ID/g] | tissue uptake at 1 h [3, 5] [%ID/g] | tissue uptake at 1 h [3, 6] [%ID/g] | tissue uptake at 1 h [3, 7] [%ID/g] | tissue uptake at 1 h [3, 8] [%ID/g] | tissue uptake at 1 h [3, 9] [%ID/g] | tissue uptake at 1 h [3, 10] [%ID/g] | tissue uptake at 1 h [3, 11] [%ID/g] | tissue uptake at 1 h [3, 12] [%ID/g] | tissue uptake at 1 h [3, 13] [%ID/g] | tissue uptake at 1 h [3, 14] [%ID/g] | tissue uptake at 1 h [3, 15] [%ID/g] | tissue uptake at 1 h [3, 16] [%ID/g]
1 | C[C@@H](O)[C@H](NC(=O)[C@@H]1CSSC[C@H](NC(=O)[C@@H](Cc2ccccc2)NC(=O)CN2CCN(CC(=O)O)CCN(CC(=O)NC[C@@H](NC(=O)C[N+](C)(C)Cc3ccc([Si](F)(C(C)(C)C)C(C)(C)C)cc3)C(=O)O)CCN(CC(=O)O)CC2)C(=O)N[C@@H](Cc2ccc(O)cc2)C(=O)N[C@H](Cc2c[nH]c3ccccc23)C(=O)N[C@@H](CCCCN)C(=O)N[C@@H]([C@@H](C)O)C(=O)N1)C(=O)O [[^nat/18F][^natGa]rhTATE1, N-SiFAlin-N, N-Me2-Gly-D-Dap(trans-[^natGa]DOTA-TATE), metal not drawn] | −1.03 | -1.03 | 95.4 | – | – | – | – | – | – | – | – | – | – | – | – | – | –
2 | C[C@@H](O)[C@H](NC(=O)[C@@H]1CSSC[C@H](NC(=O)[C@@H](Cc2ccccc2)NC(=O)CN2CCN(CC(=O)O)CCN(CC(=O)NCCCC[C@@H](NC(=O)[C@@H](CNC(=O)C[N+](C)(C)Cc3ccc([Si](F)(C(C)(C)C)C(C)(C)C)cc3)NC(=O)[C@@H](CCCCN)NC(=O)[C@@H](CCC(=O)O)NC(=O)[C@H](N)CCC(=O)O)C(=O)O)CCN(CC(=O)O)CC2)C(=O)N[C@@H](Cc2ccc(O)cc2)C(=O)N[C@H](Cc2c[nH]c3ccccc23)C(=O)N[C@@H](CCCCN)C(=O)N[C@@H]([C@@H](C)O)C(=O)N1)C(=O)O [[^18/natF][^natGa]rhTATE2.4, metal not drawn] | −2.28 | – | 92.7 | 841 | – | – | – | – | – | – | – | – | – | – | – | – | –
3 | C[C@@H](O)[C@H](NC(=O)[C@@H]1CSSC[C@H](NC(=O)[C@@H](Cc2ccccc2)NC(=O)CN2CCN(CC(=O)O)CCN(CC(=O)NCCCC[C@@H](NC(=O)[C@@H](CNC(=O)C[N+](C)(C)Cc3ccc([Si](F)(C(C)(C)C)C(C)(C)C)cc3)NC(=O)[C@@H](CCCNC(N)=O)NC(=O)[C@@H](CCCNC(N)=O)NC(=O)[C@H](N)CCC(=O)O)C(=O)O)CCN(CC(=O)O)CC2)C(=O)N[C@@H](Cc2ccc(O)cc2)C(=O)N[C@H](Cc2c[nH]c3ccccc23)C(=O)N[C@@H](CCCCN)C(=O)N[C@@H]([C@@H](C)O)C(=O)N1)C(=O)O [[^18/natF][^natGa]rhTATE2.2, metal not drawn] | −2.30 | – | 94.3 | 550 | 4.35 ± 0.69 | 0.39 ± 0.19 | 1.7 ± 0.45 | 0.33 ± 0.01 | 2.87 ± 0.15 | 32.6 ± 3.5 | 2.43 ± 0.36 | 6.29 ± 0.65 | 0.06 ± 0.01 | 31.5 ± 2.32 | 1.31 ± 0.2 | 13.4 ± 1.6 | 27.9 ± 4.78
4 | C[C@@H](O)[C@H](NC(=O)[C@@H]1CSSC[C@H](NC(=O)[C@@H](Cc2ccccc2)NC(=O)CN2CCN(CC(=O)O)CCN(CC(=O)NCCCC[C@@H](NC(=O)[C@@H](CNC(=O)C[N+](C)(C)Cc3ccc([Si](F)(C(C)(C)C)C(C)(C)C)cc3)NC(=O)[C@@H](CN)NC(=O)[C@@H](CCC(=O)O)NC(=O)[C@H](N)CCC(=O)O)C(=O)O)CCN(CC(=O)O)CC2)C(=O)N[C@@H](Cc2ccc(O)cc2)C(=O)N[C@H](Cc2c[nH]c3ccccc23)C(=O)N[C@@H](CCCCN)C(=O)N[C@@H]([C@@H](C)O)C(=O)N1)C(=O)O [[^18/natF][^natGa]rhTATE2.3, metal not drawn] | −2.12 | – | 96.0 | 619 | – | – | – | – | – | – | – | – | – | – | – | – | –
5 | C[C@@H](O)[C@H](NC(=O)[C@@H]1CSSC[C@H](NC(=O)[C@@H](Cc2ccccc2)NC(=O)CN2CCN(CC(=O)O)CCN(CC(=O)NCCCC[C@@H](NC(=O)[C@@H](CNC(=O)C[N+](C)(C)Cc3ccc([Si](F)(C(C)(C)C)C(C)(C)C)cc3)NC(=O)[C@@H](CCCNC(N)=O)NC(=O)[C@@H](CCCNC(N)=O)NC(=O)[C@H](N)CCCNC(N)=O)C(=O)O)CCN(CC(=O)O)CC2)C(=O)N[C@@H](Cc2ccc(O)cc2)C(=O)N[C@H](Cc2c[nH]c3ccccc23)C(=O)N[C@@H](CCCCN)C(=O)N[C@@H]([C@@H](C)O)C(=O)N1)C(=O)O [[^18/natF][^natGa]rhTATE2.1, metal not drawn] | −2.27 | – | 98.8 | 536 | – | – | – | – | – | – | – | – | – | – | – | – | –
6 | C[C@@H](O)[C@H](NC(=O)[C@@H]1CSSC[C@H](NC(=O)[C@@H](Cc2ccccc2)NC(=O)CN2CCN(CC(=O)O)CCN(CC(=O)NCCCC[C@@H](NC(=O)C[N+](C)(C)Cc3ccc([Si](F)(C(C)(C)C)C(C)(C)C)cc3)C(=O)O)CCN(CC(=O)O)CC2)C(=O)N[C@@H](Cc2ccc(O)cc2)C(=O)N[C@H](Cc2c[nH]c3ccccc23)C(=O)N[C@@H](CCCCN)C(=O)N[C@@H]([C@@H](C)O)C(=O)N1)C(=O)O [[^nat/18F][^natGa]rhTATE2, N-SiFAlin-N, N-Me2-Gly-D-Lys(trans-[^natGa]DOTA-TATE), metal not drawn] | −1.19 | – | 94.5 | – | – | – | – | – | – | – | – | – | – | – | – | – | –
7 | CC(=O)N[C@@H]1[C@@H](O)[C@H](O)[C@@H](CO)O[C@H]1NC(=O)C[C@H](NC(=O)C[N+](C)(C)Cc1ccc([Si](F)(C(C)(C)C)C(C)(C)C)cc1)C(=O)N[C@@H](CC(=O)O)C(=O)N[C@@H](CC(=O)O)C(=O)NCCOCCOCC(=O)N[C@H](Cc1ccccc1)C(=O)N[C@H]1CSSC[C@@H](C(=O)N[C@H](C(=O)O)[C@@H](C)O)NC(=O)[C@H]([C@@H](C)O)NC(=O)[C@H](CCCCN)NC(=O)[C@@H](Cc2c[nH]c3ccccc23)NC(=O)[C@H](Cc2ccc(O)cc2)NC1=O [[^nat/18F]SiTATE, SiFAlin-Asn(Ac-NHβGlc)Asp2-PEG1-TATE, reference compound] | −1.27 | – | 86.8 | 236 | 1.89 ± 0.37 | 0.81 ± 0.11 | 1.54 ± 0.34 | 0.47 ± 0.06 | 1.67 ± 0.21 | 16.3 ± 1 | 1.97 ± 0.25 | 3.38 ± 0.62 | 0.15 ± 0.02 | 8.94 ± 1.98 | 0.66 ± 0.08 | 6.75 ± 0.58 | 22.7 ± 2.68
